Bridge positions count the residues as written; N and C are the ends. Square brackets hold non-standard residues; d marks the D form. Peptide text beside a SMILES is read from it. 2Nal = N[C@@H](Cc1ccc2ccccc2c1)C(=O)O; Thp = NC1(C(=O)O)CCOCC1
biological target: Interleukin-23 subunit alpha/receptor (UniProt Q5VWK5); test: ELISA assay for specific human IL-23R inhibitors
Method: (§1) A 384-well plate was coated with 50 µl/well of human IL-23 at a final concentration of […] and incubated overnight at 4°C. The wells were washed 3 times with […] wash buffer and blocked with […] blocking buffer for 60 minutes at room temperature and washed again. 20 µl of serially diluted test peptides was added to each well and subsequently 20 µl of recombinant human IL-23R-Fc chimera at final concentration of […]. The plate was incubated for 60 minutes at room temperature. After the wells were washed, bound IL-23R-Fc was detected with goat anti-hu- IgG 1 -HRP antibody. Signals were visualized with QuantaBlu Fluorogenic Peroxidase Substrate.

| IC50 [nM] | Compound |
| --- | --- |
| 0.78 | COc1ccc(C[C@@H]2NC(=O)[C@H](C)NC(=O)[C@H](CCC(N)=O)NC(=O)[C@H](Cc3c[nH]c4ccccc34)NC(=O)[C@H]([C@@H](C)O)NC(=O)[C@H](CC(N)=O)NC(=O)[C@H](NC(C)=O)CCCCNC(=O)C[C@@H](C(=O)N[C@@H](CC(N)=O)C(=O)N[C@@H](CC(N)=O)C(N)=O)NC(=O)C3(CCOCC3)NC(=O)[C@H](Cc3ccc4ccccc4c3)NC2=O)cc1 [WO2025051920, Example 51] (Ac-[dK]NTWQAY(Me)[2Nal][Thp]DNN-NH2; lactam 1-10) |

biological target: T1, Interleukin-23 subunit alpha/receptor (UniProt Q9NPF7+Q5VWK5); test: ELISA assay for specific human IL-23R inhibitors
T1 sequence (Q9NPF7 whole entry): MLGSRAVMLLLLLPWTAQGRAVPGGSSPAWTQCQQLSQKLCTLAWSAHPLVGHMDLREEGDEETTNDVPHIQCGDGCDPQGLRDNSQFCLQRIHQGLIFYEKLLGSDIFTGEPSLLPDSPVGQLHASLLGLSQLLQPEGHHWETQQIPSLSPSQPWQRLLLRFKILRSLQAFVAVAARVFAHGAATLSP
T1 sequence (Q5VWK5 whole entry): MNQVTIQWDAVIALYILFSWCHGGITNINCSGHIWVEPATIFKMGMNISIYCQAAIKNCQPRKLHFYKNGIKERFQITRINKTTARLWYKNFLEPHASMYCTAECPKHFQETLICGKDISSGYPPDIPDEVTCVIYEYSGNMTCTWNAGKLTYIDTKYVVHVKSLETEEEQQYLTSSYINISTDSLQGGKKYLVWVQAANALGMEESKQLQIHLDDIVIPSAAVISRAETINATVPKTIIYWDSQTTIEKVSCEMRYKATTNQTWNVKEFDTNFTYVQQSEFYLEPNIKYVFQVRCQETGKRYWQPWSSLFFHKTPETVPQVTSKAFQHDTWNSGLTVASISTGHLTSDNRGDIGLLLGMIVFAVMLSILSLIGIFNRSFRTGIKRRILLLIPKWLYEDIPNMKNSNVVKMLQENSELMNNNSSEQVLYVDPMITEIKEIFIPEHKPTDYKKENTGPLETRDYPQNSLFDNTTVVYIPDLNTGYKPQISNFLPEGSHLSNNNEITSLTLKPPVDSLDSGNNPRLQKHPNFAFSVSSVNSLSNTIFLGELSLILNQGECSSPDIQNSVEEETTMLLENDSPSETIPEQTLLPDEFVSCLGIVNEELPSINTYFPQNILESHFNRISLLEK
Method: as §1

| Compound | IC50 [nM] |
| --- | --- |
| COc1ccc(C[C@@H]2NC(=O)[C@H](CCCNC(=N)N)NC(=O)[C@H](CCC(N)=O)NC(=O)[C@H](Cc3cn(C)c4ccccc34)NC(=O)[C@H]([C@@H](C)O)NC(=O)[C@H](CC(N)=O)NC(=O)[C@H](NC(C)=O)CCCCNC(=O)C[C@@H](C(=O)N[C@@H](CC(N)=O)C(=O)N[C@@H](CC(N)=O)C(=O)O)NC(=O)[C@H](CC(C)C)NC(=O)[C@H](Cc3cccc4ccccc34)NC2=O)cc1 [WO2025051920, Example 23] | 12 |
| COc1ccc(C[C@@H]2NC(=O)[C@H](CCCNC(=N)N)NC(=O)[C@H](CCC(N)=O)NC(=O)[C@H](Cc3cn(C)c4ccccc34)NC(=O)[C@H]([C@@H](C)O)NC(=O)[C@H](CC(N)=O)NC(=O)[C@H](NC(C)=O)CCCCNC(=O)C[C@@H](C(=O)N[C@@H](CC(N)=O)C(=O)N[C@@H](CC(N)=O)C(=O)O)NC(=O)[C@H](CC(C)C)NC(=O)[C@H](Cc3ccc4ccccc4c3)NC2=O)cc1 [WO2025051920, Example 24] | 1.21 |
| COc1ccc(C[C@@H]2NC(=O)[C@H](C)NC(=O)[C@H](CCC(N)=O)NC(=O)[C@H](Cc3c[nH]c4ccccc34)NC(=O)C([C@@H](C)O)NC(=O)[C@H](CC(N)=O)NC(=O)C(N)CCCCNC(=O)C[C@H](C(=O)N[C@@H](CC(N)=O)C(=O)N[C@@H](CC(N)=O)C(=O)O)NC(=O)C(C)(C)NC(=O)[C@H](Cc3ccc4ccccc4c3)NC2=O)cc1 (stereo partly drawn) [WO2025051920, Example 44] | 4.66 |

Second part, the compound after the results:

| IC50 [nM] | Compound |
| --- | --- |
| 1.55 | COc1ccc(C[C@@H]2NC(=O)[C@H](CCCNC(=N)N)NC(=O)[C@H](CCC(N)=O)NC(=O)[C@H](Cc3c[nH]c4ccccc34)NC(=O)C([C@@H](C)O)NC(=O)[C@H](CC(N)=O)NC(=O)[C@H](NC(C)=O)CCCCNC(=O)C[C@H](C(=O)N[C@@H](CC(N)=O)C(=O)N[C@@H](CC(N)=O)C(=O)O)NC(=O)C(C)(C)NC(=O)[C@H](Cc3ccc4ccccc4c3)NC2=O)cc1 (stereo partly drawn) [WO2025051920, Example 3] |
| 1.95 | COc1ccc(C[C@@H]2NC(=O)[C@H](CCCNC(=N)N)NC(=O)[C@H](CCC(N)=O)NC(=O)[C@H](Cc3c[nH]c4ccccc34)NC(=O)C([C@@H](C)O)NC(=O)[C@H](CC(N)=O)NC(=O)[C@H](NC(C)=O)CCCCNC(=O)CC[C@H](C(=O)N[C@@H](CC(N)=O)C(=O)N[C@@H](CC(N)=O)C(=O)O)NC(=O)C(C)(C)NC(=O)[C@H](Cc3ccc4ccccc4c3)NC2=O)cc1 (stereo partly drawn) [WO2025051920, Example 5] |
| 3.55 | COc1ccc(C[C@@H]2NC(=O)[C@H](CCCNC(=N)N)NC(=O)[C@H](CCC(N)=O)NC(=O)[C@H](Cc3c[nH]c4ccccc34)NC(=O)C([C@@H](C)O)NC(=O)[C@H](CC(N)=O)NC(=O)C(NC(C)=O)CCCCNC(=O)C[C@H](C(=O)N[C@@H](CC(N)=O)C(=O)N[C@@H](CC(N)=O)C(=O)O)NC(=O)C(C)(C)NC(=O)[C@H](Cc3cccc4ccccc34)NC2=O)cc1 (stereo partly drawn) [WO2025051920, Example 9] |
| 1.04 | COc1ccc(C[C@@H]2NC(=O)[C@H](CCCNC(=N)N)NC(=O)[C@H](CCC(N)=O)NC(=O)[C@H](Cc3c[nH]c4ccccc34)NC(=O)C([C@@H](C)O)NC(=O)[C@H](CC(N)=O)NC(=O)C(NC(C)=O)CCCCNC(=O)C[C@H](C(=O)N[C@@H](CC(N)=O)C(=O)N[C@@H](CC(N)=O)C(=O)O)NC(=O)C(C)(C)NC(=O)[C@H](Cc3ccc4ccccc4c3)NC2=O)cc1 (stereo partly drawn) [WO2025051920, Example 15] |

From BindingDB's records for patent WO2025051920 (Sanofi-Aventis Deutschland, 2025)
